Test results published in ChEMBL document CHEMBL1201862, “PubChem BioAssay data set” (2004).
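Growth conditions: 96-well plates. Treatment: test compound, 48 hours, 5 concentrations. Analysis: linear interpolation between bracketing concentrations; unreached endpoints set to highest concentration. GI50 = concentration required for 50% inhibition of growth.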 Activity calls are given as the source filed them. No stated cut-off is given here; in the data, active = GI50 up to about 1.1 µM and inactive = higher.

Assays:
Assay in all cases: NCI anticancer screen, dose series, 48 h
CCRF-CEM = test system: CCRF-CEM
SK-MEL-28 = test system: SK-MEL-28
COLO 205 = test system: COLO 205
HOP-92 = test system: HOP-92
LOX IMVI = test system: LOX IMVI
NCI-H522 = test system: NCI-H522
RXF 393 = test system: RXF 393
SF-539 = test system: SF-539
MOLT-4 = test system: MOLT-4
K562 = test system: K562
SK-OV-3 = test system: SK-OV-3
MDA-N = test system: MDA-N
NCI-H460 = test system: NCI-H460
Hs-578T = test system: Hs-578T
UO-31 = test system: UO-31
UACC-62 = test system: UACC-62
BT-549 = test system: BT-549
TK-10 = test system: TK-10
U-251 = test system: U-251
RPMI-8226 = test system: RPMI-8226

Measured: GI50

COc1cc(/C=C2\N=C(c3ccccc3)N(c3cc4cc(Sc5ccccc5)ccc4[nH]3)C2=O)cc(OC)c1OC
inactive: CCRF-CEM 16.9 µM | SK-MEL-28 12.9 µM | COLO 205 11.3 µM | HOP-92 6.92 µM | LOX IMVI 11.3 µM | NCI-H522 2.96 µM | RXF 393 10.1 µM | SF-539 12.3 µM | MOLT-4 10.1 µM | K562 4.25 µM | SK-OV-3 21.6 µM | MDA-N 3.72 µM | NCI-H460 14.3 µM | Hs-578T 2.72 µM | UO-31 14.3 µM | UACC-62 10.1 µM | BT-549 9.42 µM

O=C1C(c2c(O)[nH]c3ccc(Br)cc23)=Nc2ccc(Br)cc21
inactive: CCRF-CEM 63.5 µM | SK-MEL-28 > 100 µM | COLO 205 > 100 µM | HOP-92 > 100 µM | LOX IMVI 62.1 µM | NCI-H522 83 µM | TK-10 72.9 µM | RXF 393 16.6 µM | U-251 18.7 µM | RPMI-8226 > 100 µM | MOLT-4 45 µM | K562 43.9 µM | SK-OV-3 28.9 µM | MDA-N 31.2 µM | NCI-H460 37 µM | Hs-578T 51.4 µM | UO-31 > 100 µM | UACC-62 > 100 µM | BT-549 70.6 µM

O=C1CC(NC(=O)C(F)(F)F)c2c(Br)sc(N3CCC(c4ccccc4)CC3)c21 (configuration not stated)
inactive: CCRF-CEM 4.05 µM | COLO 205 > 100 µM | HOP-92 3.87 µM | LOX IMVI 7.85 µM | NCI-H522 7.94 µM | TK-10 19 µM | RXF 393 17 µM | U-251 6.76 µM | SF-539 44.6 µM | MOLT-4 4.68 µM | K562 5.27 µM | SK-OV-3 64 µM | MDA-N 78.9 µM | NCI-H460 13.7 µM | Hs-578T 20 µM | UO-31 8.77 µM | UACC-62 20.4 µM | BT-549 27.7 µM

CC12CCC(C1)C(C)(C)C2OC(=O)c1ccccc1C(=O)O (configuration not stated)
inactive: SK-MEL-28 > 100 µM | COLO 205 > 100 µM | HOP-92 > 100 µM | LOX IMVI > 100 µM | NCI-H522 > 100 µM | TK-10 > 100 µM | RXF 393 > 100 µM | U-251 > 100 µM | RPMI-8226 > 100 µM | MOLT-4 > 100 µM | K562 > 100 µM | SK-OV-3 > 100 µM | MDA-N > 100 µM | NCI-H460 > 100 µM | Hs-578T 8.97 µM | UO-31 > 100 µM | UACC-62 > 100 µM | BT-549 > 100 µM
